Laboratory results: patent US20070015733A1, “Aryl Phosphate Derivatives of d4T having Activity Against Resistant HIV Strains” (Parker Hughes Institute, priority 1998, published 2007)
Like-named read-outs stand apart in the source and are kept apart here.

Assays:
[1] = system: zidovudine-resistant primary clinical HIV-1 isolates; experiment: p24 drug susceptibility assay, NRTI-/zidovudine-resistant primary clinical HIV-1 isolates in PBMC; format: cell-based; conditions: Human immunodeficiency virus 1, PBMC
Experimental: Viruses. […] The HIV-1 strains HTLVIIIB (wildtype RT, NRTI-sensitive, NNRTI-sensitive), A17 (Y181 C mutant, NNRTI-resistant), A17-variant (Y181C+K103N mutant, NNRTI-resistant), and RT-MDR (M41 L, V106N, T215Y; NRTI-resistant, NNRTI-resistant) were also obtained from the AIDS Research and Reference Reagent Program, NIAID.
Antiviral susceptibility assays. Phenotypic drug susceptibility studies of HIV-1 isolates and strains were performed by measuring the production of the p24 gag protein in peripheral blood mononuclear cells (PBMC) from seronegative healthy volunteers in the presence of increasing concentrations of the anti-HIV agent using the quantitative Coulter HIV-1 p24 antigen ezyme immunoassay (EIA) and HIV-1 p24 Antigen Kinetic Standard (Beckman Coulter), as previously described (Uckun, 1998, Antimicrobial Agents and Chemotherapy 37(4): 835-38). Informed consent was obtained from the blood donors according to DHHS guidelines using consent forms approved by the Institutional Review Board. In brief, PBMC were cultured for 72 h in RPMI 1640 medium (Gibco) supplemented with 20% (vol/vol) heat-inactivated fetal bovine serum, 5% human interleukin-2 (Zeptometrix), 2 mM L-glutamine, 25 mM HEPES, 2 g/L NaHCO3, 100 U/ml penicillin/streptomycin (Gibco), 50 μg/ml gentamicin (Gibco), and 5 μg/ml phytohemagglutinin-P (PHA-P) (Sigma) for 24-72 hours prior to exposure to HIV at a multiplicity of infection of 0.001-0.1 during a 1-h adsorbtion period at 37±1° C. in a humidified 5-7% CO2 atmosphere. Subsequently, cells were cultured in 96-well microtiter plates (100 μl/well; 2×10^6 cells/ml, triplicate wells) in the presence of the anti-HIV agents at 6-7 different concentrations ranging from 0.0001 μM to 100 μM, and 25 μL aliquots of culture supernatants were removed from the wells on day 6 after infection for p24 EIA, as previously described (Uckun, 1998, Antimicrobial Agents and Chemotherapy, 37(4):835-38). Controls included uninfected and untreated cells (background control) and infected but untreated (virus control) cells. The p24 EIA utilizes a murine monoclonal antibody to HIV core protein used to coat microwell strips to which the antigen present in the test culture supernatant samples binds. Percent inhibition of viral replication was calculated by comparing the p24 values from the test substance-treated infected cells with p24 values from untreated infected cells (i.e., virus controls). The IC50 values were determined using the Statview statistics program (SAS Institute, Inc.). In parallel, the effects of various treatments on cell viability were also examined as previously described (Uckun, 1998, Antimicrobial Agents and Chemotherapy, 42:383-388). In brief, noninfected PBMC were treated with each compound for 5 days under identical experimental conditions. A microculture tetrazolium assay (MTA) was performed to quantitate cellular proliferation (Uckun, 1998, Antimicrobial Agents and Chemotherapy, 42:383-388).
Phenotypic drug susceptibility studies of HIV-1 isolates and strains were performed by measuring the production of the p24 gag protein in peripheral blood mononuclear cells (PBMC) from seronegative healthy volunteers in the presence of increasing concentrations of the anti-HIV agent using the quantitative Coulter HIV-1 p24 antigen enzyme immunoassay (EIA) and HIV-1 p24 Antigen Kinetic Standard (Beckman Coulter), as previously described. StatView was used in the calculation of the IC50 values from each set of triplicate wells using the linearized form of an exponential equation (lnY=lnb0+b1X; where Y=% inhibition, X=drug concentration). The inhibition constants were log10 transformed to homogenize the variances within each group. […] P-values below 0.05 were deemed significant (JMP Software, SAS).

[2] = system: AZT- and NNI-resistant HIV-1 (strain: RTMDR-1); experiment: Inhibition of RTMDR-1 (HIV-MDR) replication in PBMNC (RT activity); format: cell-based
Experimental: Cellular Assays of Anti-HIV Activity and Cytotoxicity. […] Percent viral inhibition was calculated by comparing the RT activity values from the test substance-treated infected cells with RT values from untreated infected cells (i.e., virus controls).

[3] = Pharmacokinetics after intravenous or oral administration; format: in vivo, mice

COC(=O)C(C)NP(=O)(OC[C@@H]1C=C[C@H](n2cc(C)c(=O)[nH]c2=O)O1)Oc1ccc(Br)cc1 (some centres unmarked) [Compound 1c, d4T-5′-[p-bromo-phenylmethoxyalaninyl phosphate]]
IC50 ([1]; isolate 92BR019 (D67N, L214F, T215D, K219Q), PBMC): 2 nM | IC50 ([1]; isolate BR/92/019, PBMC, p24): 2 nM | IC50 ([1]; isolate C140 (M41L, M184V, T215Y), PBMC): 2.5 nM | IC50 ([1]; isolate C140, PBMC, p24): 2.5 nM | IC50 ([1]; isolate C467-4 (K20R, D67N, K70R, Y188L, T215F, K219Q), PBMC): 42 nM | IC50 ([1]; isolate C467-4, PBMC, p24): 42 nM | IC50 ([1]; isolate G190-6, PBMC, p24): 2.8 nM | IC50 ([1]; isolate G691-2 (mutations N.D.), PBMC): 5 nM | IC50 ([1]; isolate G704-2 (M41L, D67N, K70R, L210W, T215Y), PBMC): 3.2 nM | IC50 ([1]; isolate G704-2, PBMC, p24): 3.2 nM | IC50 ([1]; isolate G780-1 (M41L, D67N, K70R, T215F, K219Q), PBMC): 35 nM | IC50 ([1]; isolate G780-1, PBMC, p24): 35 nM | IC50 ([1]; isolate G890-1 (K20R, M41L, D67N, T69N, K70R, L210W, T215Y), PBMC): 6 nM | IC50 ([1]; isolate G890-1, PBMC, p24): 6 nM | IC50 ([1]; isolate G910-6 (M41L, D67N, K70R, T215Y, K219Q), PBMC): 2.8 nM | IC50 ([1]; isolate P798-1 (M41L, T215Y), PBMC): 7.5 nM | IC50 ([1]; isolate P798-1, PBMC, p24): 7.5 nM | IC50 ([1]; isolate Q252-2 (M41L, L210W, T215Y), PBMC): 1.9 nM | IC50 ([1]; isolate Q252-2, PBMC, p24): 1.9 nM | IC50 ([1]; isolate R416-10 (M41L, T215Y), PBMC): 0.2 nM | IC50 ([1]; isolate R416-10, PBMC, p24): 0.2 nM | IC50 ([1]; isolate S159-2 (M41L, K103N, T215Y), PBMC): 0.78 nM | IC50 ([1]; isolate S159-2, PBMC, p24): 0.8 nM | IC50 ([1]; isolate S762-4 (M41L, T215Y), PBMC): 8 nM | IC50 ([1]; isolate S762-4, PBMC, p24): 8 nM | IC50 ([1]; isolate T156-3 (M41L, E44D, D67N, T69D, L210W, T215Y), PBMC): 3.3 nM | IC50 ([1]; isolate T156-3, PBMC, p24): 3.3 nM | IC50 ([1]; isolate X165-8 (D67N, T69N, K70R, K103N, Y181C, T215F, K219E), PBMC): 13 nM | IC50 ([1]; isolate X165-8, PBMC, p24): 13 nM | IC50 ([1]; isolate X165-9 (K20R, D67N, K103N, T215Y), PBMC): 2 nM | IC50 ([1]; isolate X165-9, PBMC, p24): 2 nM | IC50 ([1]; isolate X267-1 (L74V), PBMC, p24): 0.2 nM | IC50 ([1]; isolate X267-1 (M41L, L74V, L210W, T215Y), PBMC): 0.15 nM | IC50 ([1]; isolate X267-2 (M41L, T215Y), PBMC): 0.18 nM | IC50 ([1]; isolate X267-2, PBMC, p24): 0.2 nM | IC50 ([1]; isolate X267-5 (M41L, F116S, T215Y), PBMC): 30 nM | IC50 ([1]; isolate X267-5, PBMC, p24): 30 nM | IC50 ([1]; isolate Y270-7 (M41W, Y188L, T215N), PBMC): 9 nM | IC50 ([1]; isolate Y270-7, PBMC, p24): 9 nM | IC50 ([1]; primary isolate C467-4 (Y188L), Table 14): 42 nM | IC50 ([1]; primary isolate S159-2 (K103N), Table 14): < 0.1 nM | IC50 ([1]; primary isolate X165-8 (K103N, Y181C), Table 14): 13 nM | IC50 ([1]; primary isolate X165-9 (K103N), Table 14): 2 nM | IC50 ([1]; primary isolate Y270-7 (Y188L), Table 14): 9 nM | IC50 ([1]; read-out: IC50 (nM), Mean ± SE, All (n = 25) NRTI-resistant HIV-1 isolates, p24): 13.4 ± 3.2 nM | IC50 ([1]; read-out: IC50 (nM), Mean ± SE, Group A (n = 19) NRTI-resistant clinical isolates): 8.9 ± 2.9 nM | IC50 ([1]; read-out: IC50 (nM), median, All (n = 25)): 6 nM | IC50 ([1]; read-out: IC50 (nM), median, Group A (n = 19)): 3.2 nM | IC50 ([1]; read-out: IC50 (nM), range, All (n = 25)): 0.2 to 57.9 nM | IC50 ([1]; read-out: IC50 (nM), range, Group A (n = 19)): 0.2 to 42 nM | IC50 ([1]; read-out: IC50, μM, Mean ± SE, mean over 20 zidovudine-resistant primary clinical isolates): 8.7 ± 2.7 nM | IC50 ([1]; read-out: IC50, μM, Mean ± SE, mean over the NNRTI-resistant primary isolates of Table 14): 11.2 ± 6.5 nM | IC50 ([1]; read-out: IC50 range, range over 20 zidovudine-resistant primary clinical isolates): 1 to 42 nM | IC50 ([1]; read-out: average IC50 value, mean over 20 zidovudine-resistant primary clinical isolates): 8.7 ± 2.8 nM | IC50 ([1]; read-out: average IC50 value, mean over primary clinical isolates with NNRTI binding pocket mutations): 11.2 ± 6.5 nM | IC50 ([1]; read-out: mean IC50 value, NRTI-resistant isolates with 5 thymidine analog mutations (Group 1 in Table 19)): 10.7 ± 5.1 nM | IC50 ([1]; read-out: mean IC50 value, isolates with M184V plus multiple thymidine analog mutations (Group 2 in Table 19)): 17.2 ± 13 nM | IC50 ([2]; Human immunodeficiency virus 1, read-out: HIV-MDR IC50 [RT]): 20 nM | IC50 ([2]; Human immunodeficiency virus 1, read-out: IC50 against HIV-MDR): 20 nM | IC50 ([2]; Human immunodeficiency virus 1, read-out: RTMDR-1 IC50 [RT]): 20 nM | parent compound in blood ([3]; after oral administration): No parent d4T-5′-[p-bromophenyl methoxyalaninyl phosphate] was detectable | elimination half-life (t1/2) of the administered substance ([3]; intravenous administration): 3.5 min
